Earlier results, collected in patent US20210137911A1, “NOVEL CHRONOTHERAPY BASED ON CIRCADIAN RHYTHMS” (THE TRUSTEES OF THE UNIVERSITY OF PENNSYLVANIA, priority 2014, published 2021).
Positions of bridges follow the written chain, without caps; N, C: chain ends. Non-standard residues stand in square brackets, D forms with d. Residues, ends and D or L forms follow the SMILES beside them. hArg = N=C(N)NCCCC[C@H](N)C(=O)O; Mpa = O=C(O)CCS

Conditions: half-life of therapeutic compound as listed in Table 1; cited from earlier work

SMILES	½ Life [h]
O=[N+]([O-])[O-].O=[N+]([O-])[O-].O=[N+]([O-])[O-].[Ga+3] [Gallium nitrate]	1
O=C(O)CCCO [Gamma Hydroxybutyric Acid]	0.5
CC(=O)[C@H]1CC[C@H]2[C@@H]3CC[C@H]4C[C@](C)(O)CC[C@]4(C)[C@H]3CC[C@]12C [Ganaxolone]	1.3
Nc1ccn([C@@H]2O[C@H](CO)[C@@H](O)C2(F)F)c(=O)n1 [Gemcitabine]	0.7
Cc1ccc(C)c(OCCCC(C)(C)C(=O)O)c1 [Gemfibrozil, reference compound]	1.5
CCC1=C(C)CN(C(=O)NCCc2ccc(S(=O)(=O)NC(=O)N[C@H]3CC[C@H](C)CC3)cc2)C1=O [Glimepiride]	5
Cc1cnc(C(=O)NCCc2ccc(S(=O)(=O)NC(=O)NC3CCCCC3)cc2)cn1 [Glipizide]	2
COc1ccc(Cl)cc1C(=O)NCCc1ccc(S(=O)(=O)NC(=O)NC2CCCCC2)cc1 [Glyburide]	1.4
COCCOc1cnc(NS(=O)(=O)c2ccccc2)nc1 [Glycodiazine]	4
C[N+]1(C)CCC(OC(=O)C(O)(c2ccccc2)C2CCCC2)C1 (centres unmarked) [Glycopyrrolate]	0.6
CC(C)C[C@H](NC(=O)[C@@H](COC(C)(C)C)NC(=O)[C@H](Cc1ccc(O)cc1)NC(=O)[C@H](CO)NC(=O)[C@H](Cc1c[nH]c2ccccc12)NC(=O)[C@H](Cc1cnc[nH]1)NC(=O)[C@@H]1CCC(=O)N1)C(=O)N[C@@H](CCCNC(=N)N)C(=O)N1CCC[C@H]1C(=O)NNC(N)=O [Goserelin]	4
CC(=O)Oc1ccc2c3c1O[C@H]1[C@@H](OC(C)=O)C=C[C@H]4[C@@H](C2)N(C)CC[C@@]341 [Heroin]	0.166
NNc1nncc2ccccc12 [Hydralazine]	3
NC(=O)NO [Hydroxyurea]	3
CC#CCC(C)[C@H](O)/C=C/[C@@H]1[C@H]2C/C(=C/CCCC(=O)O)C[C@H]2C[C@H]1O (some centres unmarked) [Iloprost]	0.333
CC(C)[N+]1(C)[C@@H]2CC[C@H]1CC(OC(=O)C(CO)c1ccccc1)C2.[Br-] (some centres unmarked) [Ipratropium bromide]	2
NNC(=O)c1ccncc1 [Isoniazid]	0.5
O=[N+]([O-])O[C@H]1CO[C@H]2[C@@H]1OC[C@H]2O[N+](=O)[O-] [Isosorbide Dinitrate]	1
O=[N+]([O-])O[C@@H]1CO[C@H]2[C@@H]1OC[C@@H]2O [Isosorbide Mononitrate]	5
CC(=O)N1CCN(c2ccc(OCC3COC(Cn4ccnc4)(c4ccc(Cl)cc4Cl)O3)cc2)CC1 (centres unmarked) [Ketoconazole]	2
O=C(c1ccccc1)c1ccc2n1CCC2C(=O)O (centres unmarked) [Ketorolac]	2.5

Same assay, conditions: half-life of top selling therapeutic compounds (Table 1); cited from earlier work

SMILES	½ Life [h]
CCCCC[C@H](O)/C=C/[C@H]1[C@H](O)CC(=O)[C@@H]1C/C=C\CCCC(=O)O [Dinoprostone]	0.0833
OC(CCCN1CCCCC1)(c1ccccc1)c1ccccc1 [Diphenidol]	4
OCCN(CCO)c1nc(N2CCCCC2)c2nc(N(CCO)CCO)nc(N3CCCCC3)c2n1 [Dipyridamole]	0.66
CC(CCc1ccc(O)cc1)NCCc1ccc(O)c(O)c1 (centres unmarked) [Dobutamine]	0.033
NCCc1ccc(O)c(O)c1 [Dopamine]	0.033
O=C(CCCN1CC=C(n2c(=O)[nH]c3ccccc32)CC1)c1ccc(F)cc1 [Droperidol]	1.4
N[C@H](C(=O)O)[C@H](O)c1ccc(O)c(O)c1 [Droxidopa]	2
CC(=O)[C@H]1CC[C@H]2[C@@H]3C=CC4=CC(=O)CC[C@@]4(C)[C@@H]3CC[C@]12C [Dydrogesterone]	5
Cn1c(=O)c2c(ncn2CC(O)CO)n(C)c1=O (centres unmarked) [Dyphylline]	2
CN1CCC[C@@H]1Cc1c[nH]c2ccc(CCS(=O)(=O)c3ccccc3)cc12 [Eletriptan]	4
CCOC(=O)[C@H](CCc1ccccc1)N[C@@H](C)C(=O)N1CCC[C@H]1C(=O)O [Enalapril, reference compound]	2
COc1ccc(C(=O)Nc2ccccc2CCC2CCCCN2C)cc1 (centres unmarked) [Encainide]	1
CCn1cc(C(=O)O)c(=O)c2cc(F)c(N3CCNCC3)nc21 [Enoxacin]	3
CSc1ccc(C(=O)c2[nH]c(=O)[nH]c2C)cc1 [Enoximone]	4
CNC[C@H](O)c1ccc(O)c(O)c1 [Epinephrine]	0.033
COc1cccc2c1C(=O)c1c(O)c3c(c(O)c1C2=O)C[C@@](O)(C(=O)CO)C[C@@H]3O[C@H]1C[C@H](N)[C@@H](O)[C@H](C)O1 [Epirubicin]	3
COC(=O)[C@@H]1CC2=CC(=O)CC[C@]2(C)[C@@]23O[C@@H]2C[C@@]2(C)[C@@H](CC[C@@]24CCC(=O)O4)[C@H]13 [Eplerenone]	4
CCCCc1ncc(/C=C(\Cc2cccs2)C(=O)O)n1Cc1ccc(C(=O)O)cc1 [Eprosartan]	5
C[C@@H](CO)NC(=O)[C@@H]1C=C2c3cccc4[nH]cc(c34)C[C@H]2N(C)C1 [Ergonovine]	1

SMILES	½ Life [h]
COC(=O)CCc1ccc(OCC(O)CNC(C)C)cc1 (centres unmarked) [Esmolol]	2
COc1ccc2nc([S@@+]([O-])Cc3ncc(C)c(OC)c3C)[nH]c2c1 [Esomeprazole]	1
CCc1cc(C(N)=S)ccn1 [Ethionamide]	2
CCN1C(=O)NC(c2ccccc2)C1=O (centres unmarked) [Ethotoin]	3
CCOc1ccc2nc(S(N)(=O)=O)sc2c1 [Ethoxzolamide]	2.5
CC(O)(P(=O)(O)O)P(=O)(O)O [Etidronic acid]	1
COc1cc([C@@H]2c3cc4c(cc3[C@@H](O[C@@H]3O[C@@H]5CO[C@@H](C)O[C@H]5[C@H](O)[C@H]3O)[C@H]3COC(=O)[C@H]23)OCO4)cc(OC)c1O [Etoposide]	4
CC(C(=O)O)c1cccc(Oc2ccccc2)c1 (centres unmarked) [Fenoprofen]	3
CC(C)(C)NC(=O)[C@H]1CC[C@H]2[C@@H]3CC[C@H]4NC(=O)C=C[C@]4(C)[C@H]3CC[C@]12C [Finasteride]	4.5
Nc1nc(=O)[nH]cc1F [Flucytosine]	2.4
C[C@]12CCC(=O)C=C1CC[C@H]1[C@@H]3CC[C@](O)(C(=O)CO)[C@@]3(C)C[C@H](O)[C@@]12F [Fludrocortisone]	3.5
CCOC(=O)c1ncn2c1CN(C)C(=O)c1cc(F)ccc1-2 [Flumazenil]	4
CC1(C)O[C@@H]2C[C@H]3[C@@H]4C[C@H](F)C5=CC(=O)C=C[C@]5(C)[C@H]4[C@@H](O)C[C@]3(C)[C@]2(C(=O)CO)O1 [Flunisolide]	1.8
CC1(C)O[C@@H]2C[C@H]3[C@@H]4C[C@H](F)C5=CC(=O)C=C[C@]5(C)[C@@]4(F)[C@@H](O)C[C@]3(C)[C@]2(C(=O)CO)O1 [Fluocinolone Acetonide]	1.3
O=c1[nH]cc(F)c(=O)[nH]1 [Fluorouracil]	0.166
CCN(CC)CCN1C(=O)CN=C(c2ccccc2F)c2cc(Cl)ccc21 [Flurazepam]	2.3
CC(C(=O)O)c1ccc(-c2ccccc2)c(F)c1 (centres unmarked) [Flurbiprofen]	4.7
CC(C)n1c(/C=C/C(O)CC(O)CC(=O)O)c(-c2ccc(F)cc2)c2ccccc21 (centres unmarked) [Fluvastatin, reference compound]	3
O=C1NC(c2ccccc2)(c2ccccc2)C(=O)N1COP(=O)(O)O [Fosphenytoin]	0.25

Same assay, conditions: in vivo; cited from earlier work

SMILES	½ Life [h]
CN1C(=O)CN=C(c2ccccc2)c2cc(Cl)ccc21 [Diazepam]	1
O=C(O)Cc1ccccc1Nc1c(Cl)cccc1Cl [Diclofenac]	2
CCCCCc1cc(O)c2c(c1)OC(C)(C)[C@@H]1CCC(C)=C[C@@H]21 [Dronabinol]	4
N=C(N)NCCCC[C@@H]1NC(=O)CCSSC[C@@H](C(N)=O)NC(=O)[C@@H]2CCCN2C(=O)[C@H](Cc2c[nH]c3ccccc23)NC(=O)[C@H](CC(=O)O)NC(=O)CNC1=O [Eptifibatide] ([Mpa][hArg]GDWPC-NH2; disulfide 1-7)	2.5
CN1C[C@H](C(=O)N[C@]2(C)O[C@@]3(O)[C@@H]4CCCN4C(=O)[C@H](Cc4ccccc4)N3C2=O)C=C2c3cccc4[nH]cc(c34)C[C@H]21 [Ergotamine]	2
C#CC1(OC(N)=O)CCCCC1 [Ethinamate]	2.5
NCC1(CC(=O)O)CCCCC1 [Gabapentin]	5
CC(C)C[C@H](NC(=O)CNC(=O)[C@H](Cc1ccc(O)cc1)NC(=O)[C@H](CO)NC(=O)[C@H](Cc1c[nH]c2ccccc12)NC(=O)[C@H](Cc1cnc[nH]1)NC(=O)[C@@H]1CCC(=O)N1)C(=O)N[C@@H](CCCNC(=N)N)C(=O)N1CCC[C@H]1C(=O)NCC(N)=O [Gonadorelin]	0.033
NS(=O)(=O)c1cc2c(cc1Cl)NCNS2(=O)=O [Hydrocholorthiazide, reference compound]	5.6
COc1ccc2c3c1O[C@H]1C(=O)CC[C@H]4[C@@H](C2)N(C)CC[C@]314 [Hydrocodone]	1.25
NC(N)=NCCC[C@@H](N)C(=O)N[C@@H](CCCN=C(N)N)C(=O)N1CCC[C@H]1C(=O)N1C[C@H](O)C[C@H]1C(=O)NCC(=O)N[C@@H](Cc1cccs1)C(=O)N[C@@H](CO)C(=O)N1Cc2ccccc2C[C@@H]1C(=O)N1[C@H](C(=O)N[C@@H](CCCN=C(N)N)C(=O)O)C[C@@H]2CCCC[C@@H]21 [Icatibant]	1.4
CNC1(c2ccccc2Cl)CCCCC1=O (centres unmarked) [Ketamine]	2.5
CCC(=O)C1(c2cccc(O)c2)CCN(C)CC1 [Ketobemidone]	2.42
N[C@@H](Cc1ccc(O)c(O)c1)C(=O)O [L-DOPA]	0.833

Same assay, conditions: see Table 1; cited from earlier work

SMILES	minimum reported half-life	half-life
CCOC(=O)[C@H](CCc1ccccc1)N[C@@H](C)C(=O)N1CCC[C@H]1C(=O)O [Enalapril, reference compound]	2 h	
Cc1ccc(C)c(OCCCC(C)(C)C(=O)O)c1 [Gemfibrozil, reference compound]	one and a half	one and a half
NS(=O)(=O)c1cc2c(cc1Cl)NCNS2(=O)=O [Hydrocholorthiazide, reference compound]		5.6 h
